Data: patent US12084399B2, “Crystalline tranilast salts and their pharmaceutical use” (NUFORMIX TECHNOLOGIES LIMITED, priority 2018, dated 2024)
≈ marks a conversion by molar mass, not a printed value. Counter-ions that a name gives are not always drawn. Like-named read-outs stand apart in the source and are kept apart here.

Key:
[1] = Dissolution study in simulated intestinal fluid (FaSSIF V2); type: physicochemical; details: 50 ml FaSSIF V2, pH 6.5, 37° C.
From the text: For BCS class II drugs, such as tranilast, the rate of dissolution of the drug form used in the gastrointestinal media can be the controlling factor in the overall absorption and thus the bioavailability of an oral drug. This becomes even more influential as the dose of a drug increases. For conditions such as fibrosis or cancer where a higher dose of tranilast may be needed for successful treatment, finding a form of tranilast that has a high dissolution rate is important. […] Pat. […] The dissolution study was carried out using the Pion inForm® instrument. Detection and quantification of tranilast was performed by in-situ UV-spectroscopy using a fibre-optic probe, allowing instantaneous data collection from the point of sample introduction.

[2] = Solid-state photostability study (UV irradiation, HPLC); details: for solid-state photostability (in words): UV irradiation up to 24 hours
Protocol: A 6-10 mg sample of each of the tranilast forms under investigation was spread over the bottom surface of a clear glass vial.

[3] = Solution photostability study (UV irradiation, HPLC); details: 2 mg dissolved in water (1 ml)
Protocol: (§2) A 2 mg sample of the four salt forms under investigation were each weighed into a clear glass vial. Each sample was dissolved in water (1 ml).

[4] = for Solubility (mg/ml) in terms of the mass of tranilast dissolved: water pH7.0, 25° C., 24 hours
[5] = pKa values and ΔpKa of tranilast and the salt formers
From the text: When two solid components are successfully crystallised together to form a two-component molecular complex with a new unique solid-state crystalline structure this could result in either a salt or a cocrystal. Whether a salt or a cocrystal is formed is dependent on whether a proton transfer takes place between the two different components of the complex. If a proton is transferred from one component to the other resulting in ionic bonding then a crystalline salt results. If no proton transfer occurs and the components remain in their neutral state, held together only by hydrogen bonds, Van der Waals bonds etc, then a cocrystal is formed. Whether or not proton transfer takes place is governed by the difference in pKa values for the acidic and basic functional groups of each component.

[6] = cited from earlier work
[7] = buffer, 2 mg/ml
Protocol: as §2

[8] = Solid-state accelerated stability, 40° C. and 75% relative humidity, 7 days, XRPD; type: physicochemical
Protocol: A study was carried out to examine the physical stability of the crystalline 1:1 tranilast N-methylglucamine salt polymorphs with respect to solid form conversion over time under accelerated conditions. […] After this time each sample was analysed by XRPD to observe any potential form changes.
A study was carried out to examine the physical stability of the 1:1 crystalline tranilast salts with respect to solid form conversion or deliquescence over time under accelerated conditions. […] Each sample was analysed by XRPD to observe any potential form changes.

[9] = Solid-state stability under high storage temperature, 90° C., 7 days, XRPD; type: physicochemical; details: oven at 90° C.
Protocol: (§1) A third study was carried out to explore the solid-state stability of the crystalline 1:1 tranilast N-methylglucamine salt polymorphs under high storage temperatures. Forms I and II of 1:1 tranilast N-methylglucamine salt (50 mg) were stored in an oven at 90° C. for 7 days. After this time each sample was analysed by XRPD to observe any potential form changes.

[10] = Gravimetric vapour sorption (GVS) analysis; type: physicochemical; details: for moisture reversibly absorbed (GVS): across the 90% humidity range at 25° C.
From the text: The moisture sorption isotherm graph obtained for the crystalline 1:1 tranilast N-methylglucamine Form I salt is shown in FIG. 5.
The moisture sorption isotherm graph obtained for the crystalline 1:1 tranilast N-methylglucamine Form II salt is shown in FIG. 10.

[11] = Solid-state stability under high humidity, 25° C. and 100% relative humidity, 7 days, XRPD; type: physicochemical; details: sealed container
Protocol: as §1, with “second” for “third”, “humidity.” for “storage temperatures.”, “were separately placed in a sealed container at 25° C. and 100% relative humidity and” for “were”, “under these conditions” for “in an oven at 90° C.”

[12] = exposed to light, listed as pure crystalline tranilast; cited from earlier work
[13] = Dissolution study in 5% aqueous dextrose solution; type: physicochemical; details: saline or isotonic, thermodynamic from solid, 50 ml 5% aqueous dextrose solution
Protocol: As this invention also relates to a method of preparing a liquid pharmaceutical formulation of tranilast for delivery, for example, as an injectable formulation, a liquid oral formulation or a nebulised inhaled formulation a study was also carried out to explore the dissolution rates of the crystalline tranilast salts of this invention in a suitable media. As liquid pharmaceutical formulations are usually made up in-situ at the bedside for immediate delivery it is important that these new solid forms of tranilast dissolve almost instantaneously for them to be suitable for use in a liquid pharmaceutical formulation. Whilst liquid oral formulations could be achieved by simply dissolving a drug in water prior to administration (the high aqueous solubility of the new crystalline tranilast salts would make this possible), a liquid formulation for inhaled or intravenous delivery requires the dissolution media to be isotonic. This is often achieved by using saline (0.9% sodium chloride in water) as the liquid formulation media. […] An alternative isotonic media suitable for preparing liquid pharmaceutical formulations for inhaled or intravenous administration is 5% aqueous dextrose solution. […] The results of this study can be seen in FIG. 41.

[14] = 600 mg daily dosage, inter-patient variation; cited from earlier work
[15] = cited from earlier work; remark: listed apart in the source
[16] = dissolved or stored in solution, UV exposure; cited from earlier work
[17] = cited from earlier work; remark: listed apart in the source
[18] = sealed container, 40° C. and 75% relative humidity, 7 days

COc1ccc(/C=C/C(=O)Nc2ccccc2C(=O)O)cc1OC.NC(=O)c1cccnc1 [1:1 tranilast nicotinamide cocrystal]
solubility reached after 30 seconds ([1]; 30 seconds): 2700 µg/mL | solubility after 5 minutes ([1]; 5 minutes): 1950 µg/mL | solubility after 20 minutes ([1]; 20 minutes): 1700 µg/mL

CCNCC [Diethylamine]
% tranilast remaining after UV exposure ([2]; solid state, 2 hrs): 99.57% | % tranilast remaining after UV exposure ([2]; solid state, 6 hrs): 99.61% | % tranilast remaining after UV exposure ([2]; solid state, 24 hrs): 99.63% | % tranilast remaining after UV exposure ([3]; 2 hrs): 92.06% | % tranilast remaining after UV exposure ([3]; 6 hrs): 52.30% | % tranilast remaining after UV exposure ([3]; 24 hrs): 20.72%

NCCCC[C@H](N)C(=O)O [L-Lysine]
Solubility (mg/ml) in terms of the mass of tranilast dissolved [4]: 277 to 283 mg/mL | % tranilast remaining after UV exposure ([2]; solid state, 2 hrs): 99.35% | % tranilast remaining after UV exposure ([2]; solid state, 6 hrs): 99.53% | % tranilast remaining after UV exposure ([2]; solid state, 24 hrs): 99.54% | % tranilast remaining after UV exposure ([3]; 2 hrs): 92.53% | % tranilast remaining after UV exposure ([3]; 6 hrs): 55.98% | % tranilast remaining after UV exposure ([3]; 24 hrs): 21.03%

NCCCC[C@H](N)C(=O)O [Lysine]
ΔpKa [5]: 5.70

CCNC[C@H](O)[C@@H](O)[C@H](O)[C@H](O)CO [N-ethylglucamine]
% tranilast remaining after UV exposure ([2]; 2 h): 99.55% | % tranilast remaining after UV exposure ([2]; 6 h): 99.61% | % tranilast remaining after UV exposure ([2]; 24 h): 99.47% | pKa ([6]; protonated basic functional group of the salt former): 9.52 | % tranilast remaining after UV exposure ([7]; 2 h): 84.13% | % tranilast remaining after UV exposure ([7]; 6 h): 58.20% | % tranilast remaining after UV exposure ([7]; 24 h): 35.90% | ΔpKa [5]: 6.27

CNC[C@H](O)[C@@H](O)[C@H](O)[C@H](O)CO [N-methylglucamine Form II]
% tranilast remaining after UV exposure ([2]; 2 h): 99.50% | % tranilast remaining after UV exposure ([2]; 6 h): 99.58% | % tranilast remaining after UV exposure ([2]; 24 h): 99.51%

CNC[C@H](O)[C@@H](O)[C@H](O)[C@H](O)CO [N-methylglucamine]
ΔpKa ([5]; pKa (protonated base) - pKa (acid), salt former versus tranilast): 6.27

COc1ccc(/C=C/C(=O)Nc2ccccc2C(=O)O)cc1OC.OCCNCCO [Tranilast Salt Diethanolamine, Crystalline Tranilast Diethanolamine Salt]
deliquescence [8, 18]: no signs of deliquescence | solid form conversion (XRPD) [8, 18]: retained their original crystalline form

CCNCC.COc1ccc(/C=C/C(=O)Nc2ccccc2C(=O)O)cc1OC [Tranilast Salt Diethylamine, Crystalline 1:1 Tranilast Diethylamine Salt]
Solubility (mg/ml) in terms of the mass of tranilast dissolved [4]: 18 to 20 mg/mL | solid-state photostability (in words) ([2]; solid state): photostable | deliquescence [8, 18]: no signs of deliquescence | solid form conversion (XRPD) [8, 18]: retained their original crystalline form

COc1ccc(/C=C/C(=O)Nc2ccccc2C(=O)O)cc1OC.NCCO [Tranilast Salt Ethanolamine, Crystalline Tranilast Ethanolamine Salt]
deliquescence [8, 18]: no signs of deliquescence | solid form conversion (XRPD) [8, 18]: retained their original crystalline form

COc1ccc(/C=C/C(=O)Nc2ccccc2C(=O)O)cc1OC.NCCCC[C@H](N)C(=O)O [Tranilast Salt L-Lysine, Crystalline 1:1 Tranilast L-Lysine Salt]
solid-state photostability (in words) ([2]; solid state): photostable | deliquescence [8]: no signs of deliquescence | solid form conversion (XRPD) [8]: retained their original crystalline form

CCNC[C@H](O)[C@@H](O)[C@H](O)[C@H](O)CO.COc1ccc(/C=C/C(=O)Nc2ccccc2C(=O)O)cc1OC [Tranilast Salt N-ethylglucamine, Crystalline 1:1 Tranilast N-Ethylglucamine Salt]
deliquescence [8, 18]: no signs of deliquescence | solid form conversion (XRPD) [8, 18]: retained their original crystalline form

CNC[C@H](O)[C@@H](O)[C@H](O)[C@H](O)CO.COc1ccc(/C=C/C(=O)Nc2ccccc2C(=O)O)cc1OC [Tranilast Salt N-methylglucamine Form I, Crystalline 1:1 Tranilast N-methylglucamine Form I Salt]
solid form conversion (XRPD) [9]: retained their original crystalline form | form conversion in GVS (XRPD) ([10]; XRPD of the sample at 0% RH and 90% RH): did not demonstrate any form conversion | moisture reversibly absorbed (GVS) ([10]; listed as crystalline 1:1 tranilast N-methylglucamine Form I salt): 1.4 % w/w | aqueous solubility (mass of salt) ([4]; pH 7): greater than 1000 mg/ml | solid form conversion (XRPD) [8, 18]: retained their original crystalline form | solid form conversion (XRPD) [11]: retained their original crystalline form

CNC[C@H](O)[C@@H](O)[C@H](O)[C@H](O)CO.COc1ccc(/C=C/C(=O)Nc2ccccc2C(=O)O)cc1OC [Tranilast Salt N-methylglucamine Form II, Crystalline 1:1 Tranilast N-methylglucamine Form II Salt]
moisture reversibly absorbed (GVS) ([10]; listed as crystalline 1:1 tranilast N-methylglucamine form II salt): 0.42 % w/w

COc1ccc(/C=C/C(=O)Nc2ccccc2C(=O)[O-])cc1OC.O.[K+] [Tranilast Salt Potassium Monohydrate, Crystalline 1:1 Tranilast Potassium Monohydrate Salt]
deliquescence [8, 18]: no signs of deliquescence | solid form conversion (XRPD) [8, 18]: retained their original crystalline form

COc1ccc(/C=C/C(=O)Nc2ccccc2C(=O)O)cc1OC [Tranilast, 2-[[3-(3,4-dimethoxyphenyl)-1-oxo-2-propenyl]amino] benzoic acid]
solid-state photostability (in words) [12]: photostable | solubility at 1 minute ([13]; 1 minute): 1 µg/mL (≈ 3.05 µM) | solubility at 1 hour ([13]; 1 hour): 60 µg/mL (≈ 183 µM) | plasma concentrations of the drug [14]: 30 to 300 µM | solubility in pH 1.2 buffer solution ([15]; pH 1.2 buffer solution): 0.7 μg/ml | solubility in water ([15]; water): 14.5 µg/mL (≈ 44.3 µM) | Solubility ([15]; water, comparative literature value in Table 16): 14.5 µg/mL (≈ 44.3 µM) | pKa ([6]; carboxylic acid group of tranilast): 3.25 | photochemical stability in solution (in words) [16]: photochemically unstable

COc1ccc(/C=C/C(=O)Nc2ccccc2C(=O)O)cc1OC [crystalline 1:1 tranilast sodium salt]
apparent solubility relative to pure crystalline tranilast (in words) [17]: lower apparent solubility than pure tranilast | apparent solubility relative to pure crystalline tranilast (in words) ([17]; listed as crystalline tranilast sodium salt): even less than that of pure tranilast | solubility at 20 minutes ([1]; simulated intestinal fluid (FaSSIF V2), thermodynamic from solid, 20 minutes): 300 µg/mL
